In series [1] the target is Histone deacetylase 4 (Homo sapiens, UniProt P56524). Description: Inhibition of HDAC4 (unknown origin) assessed as release of 7-amino-4-methylcoumarin incubated in room temperature for 15 min measured by Spectra max microtitre plate reader.
A short description of series [2]: Cmax in ICR mouse at 20 mg/kg, ip up to 24 hrs by LC-MS/MS analysis. The settings on record: in vivo. The series is classed as ADME, organism-based. Set-up: route intraperitoneal, dose 20 mg/kg, time <=24.
A short description of series [3]: Half life in ICR mouse at 20 mg/kg, ip up to 24 hrs by LC-MS/MS analysis. The settings on record: in vivo. The series is classed as ADME, organism-based.
For series [4], the target named is T1, Polyamine deacetylase HDAC10 (Homo sapiens, UniProt Q969S8).
T1 sequence (Q969S8 whole entry): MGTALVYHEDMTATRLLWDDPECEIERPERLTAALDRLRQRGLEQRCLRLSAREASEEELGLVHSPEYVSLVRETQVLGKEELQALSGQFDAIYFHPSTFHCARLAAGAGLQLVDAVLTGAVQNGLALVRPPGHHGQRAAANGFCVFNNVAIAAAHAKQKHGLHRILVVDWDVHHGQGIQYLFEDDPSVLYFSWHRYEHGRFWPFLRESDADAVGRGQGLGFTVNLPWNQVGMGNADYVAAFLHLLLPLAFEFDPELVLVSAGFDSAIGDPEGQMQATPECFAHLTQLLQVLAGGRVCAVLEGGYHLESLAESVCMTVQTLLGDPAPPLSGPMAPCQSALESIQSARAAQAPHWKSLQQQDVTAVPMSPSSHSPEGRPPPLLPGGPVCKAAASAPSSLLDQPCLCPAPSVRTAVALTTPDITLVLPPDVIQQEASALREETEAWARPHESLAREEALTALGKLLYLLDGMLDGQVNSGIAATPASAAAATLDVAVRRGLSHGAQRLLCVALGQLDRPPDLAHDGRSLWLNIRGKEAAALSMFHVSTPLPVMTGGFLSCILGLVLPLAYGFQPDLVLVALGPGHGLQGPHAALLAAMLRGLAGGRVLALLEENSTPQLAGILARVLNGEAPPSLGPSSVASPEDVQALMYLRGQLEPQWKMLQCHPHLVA
The series is described as follows: Inhibition of HDAC10 (unknown origin) assessed as release of 7-amino-4-methylcoumarin incubated in room temperature for 15 min measured by Spectra max microtitre plate reader.

Series [5] can be described thus: Clearance in ICR mouse at 5 mg/kg, iv up to 24 hrs by LC-MS/MS analysis. The note with it: in vivo. It counts as ADME, organism-based.
The nature of series [6]: Oral bioavailability in ICR mouse at 20 mg/kg by LC-MS/MS analysis. It counts as ADME, organism-based. The settings on record: in vivo.
Series [7] in a line: AUC (0 to t) in ICR mouse at 20 mg/kg, po by LC-MS/MS analysis. The settings on record: in vivo. Also noted: dose 20 mg/kg. The series is classed as ADME, organism-based.
The target of series [8] is Histone deacetylase 3 (Homo sapiens, UniProt O15379). Description: Inhibition of HDAC3 (unknown origin) assessed as release of 7-amino-4-methylcoumarin incubated in room temperature for 15 min measured by Spectra max microtitre plate reader.
A short description of series [9]: Elimination rate constant in ICR mouse at 20 mg/kg, po up to 24 hrs by LC-MS/MS analysis. The note with it: in vivo. It counts as ADME, organism-based.
A short description of series [10]: MRT in ICR mouse at 20 mg/kg, ip up to 24 hrs by LC-MS/MS analysis. The settings on record: in vivo. It counts as ADME, organism-based.
Series [11] can be described thus: AUC (0 to […]) in ICR mouse at 20 mg/kg, ip up to 24 hrs by LC-MS/MS analysis. It counts as ADME, organism-based. Also noted: route intraperitoneal, dose 20 mg/kg, time <=24. The settings on record: in vivo.
The test system of series [12] is MC-38. The series is described as follows: Antiproliferative activity against mouse MC38 cells measured after 72 hrs by CCK8 assay. The series is classed as functional. The settings on record: Mus musculus, MC-38.
For series [13], the target named is Histone deacetylase 1 (Homo sapiens, UniProt Q13547). The series is described as follows: Inhibition of HDAC1 (unknown origin) assessed as release of 7-amino-4-methylcoumarin incubated in room temperature for 15 min measured by Spectra max microtitre plate reader.
For series [14], the target named is T2, Adenosine receptor A2b (Homo sapiens, UniProt P29275).
T2 sequence (P29275 whole entry): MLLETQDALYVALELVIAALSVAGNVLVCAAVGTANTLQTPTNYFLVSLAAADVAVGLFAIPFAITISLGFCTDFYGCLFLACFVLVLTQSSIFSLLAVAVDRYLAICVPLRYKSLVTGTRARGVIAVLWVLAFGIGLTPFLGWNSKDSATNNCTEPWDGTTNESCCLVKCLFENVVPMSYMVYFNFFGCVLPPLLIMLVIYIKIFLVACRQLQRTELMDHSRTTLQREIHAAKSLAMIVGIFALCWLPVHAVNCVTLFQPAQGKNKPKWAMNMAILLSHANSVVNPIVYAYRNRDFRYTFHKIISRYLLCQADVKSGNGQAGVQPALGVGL
The series is described as follows: Displacement of [3H]DPCPX from human adenosine A2B receptor membrane (unknown origin) measured after 60 mins by scintillation counting analysis. It counts as cell membranes. In general terms: In a radioligand displacement assay an active substance lowers the binding of a labelled ligand.

A short description of series [15]: AUC (0 to […]) in ICR mouse at 5 mg/kg, iv up to 24 hrs by LC-MS/MS analysis. It counts as ADME, organism-based. Also noted: route intravenous, dose 5 mg/kg, time <=24. The settings on record: in vivo.
The nature of series [16]: MRT in ICR mouse at 20 mg/kg, po by LC-MS/MS analysis. It counts as ADME, organism-based. The settings on record: in vivo.
For series [17], the target named is T3, Adenosine receptor A1 (Homo sapiens, UniProt P30542).
T3 sequence (P30542 whole entry): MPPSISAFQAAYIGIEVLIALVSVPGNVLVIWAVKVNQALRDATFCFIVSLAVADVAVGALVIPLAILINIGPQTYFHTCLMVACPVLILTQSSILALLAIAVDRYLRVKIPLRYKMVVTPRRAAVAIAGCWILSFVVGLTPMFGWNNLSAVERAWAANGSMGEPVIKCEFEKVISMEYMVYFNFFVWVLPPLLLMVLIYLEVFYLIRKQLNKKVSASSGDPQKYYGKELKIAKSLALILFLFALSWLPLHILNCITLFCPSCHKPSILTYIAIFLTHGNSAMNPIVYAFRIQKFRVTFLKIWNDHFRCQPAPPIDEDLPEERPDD
Description: Displacement of [3H]DPCPX from human adenosine A1 receptor membrane (unknown origin) measured after 60 mins by scintillation counting analysis. The series is classed as cell membranes.

Series [18] addresses Histone deacetylase 9 (Homo sapiens, UniProt Q9UKV0). Description: Inhibition of HDAC9 (unknown origin) assessed as release of 7-amino-4-methylcoumarin incubated in room temperature for 15 min measured by Spectra max microtitre plate reader.
Series [19] can be described thus: Half life in ICR mouse at 20 mg/kg, po by LC-MS/MS analysis. It counts as ADME, organism-based. The settings on record: in vivo.
The target in series [20] is T4, Histone deacetylase 11 (Homo sapiens, UniProt Q96DB2).
T4 sequence (Q96DB2 whole entry): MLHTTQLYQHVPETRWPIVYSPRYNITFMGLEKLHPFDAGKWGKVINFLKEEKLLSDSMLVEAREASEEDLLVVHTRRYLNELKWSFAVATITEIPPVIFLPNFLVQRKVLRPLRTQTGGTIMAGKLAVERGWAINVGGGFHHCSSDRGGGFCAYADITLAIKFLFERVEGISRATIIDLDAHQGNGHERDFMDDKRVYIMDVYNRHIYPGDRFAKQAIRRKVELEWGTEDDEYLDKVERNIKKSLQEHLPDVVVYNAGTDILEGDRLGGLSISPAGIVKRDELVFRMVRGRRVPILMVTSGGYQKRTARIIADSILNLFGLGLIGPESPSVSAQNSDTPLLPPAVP
The series is described as follows: Inhibition of HDAC11 (unknown origin) assessed as release of 7-amino-4-methylcoumarin incubated in room temperature for 15 min measured by Spectra max microtitre plate reader.

Chain of Histone deacetylase 4 (P56524 whole entry): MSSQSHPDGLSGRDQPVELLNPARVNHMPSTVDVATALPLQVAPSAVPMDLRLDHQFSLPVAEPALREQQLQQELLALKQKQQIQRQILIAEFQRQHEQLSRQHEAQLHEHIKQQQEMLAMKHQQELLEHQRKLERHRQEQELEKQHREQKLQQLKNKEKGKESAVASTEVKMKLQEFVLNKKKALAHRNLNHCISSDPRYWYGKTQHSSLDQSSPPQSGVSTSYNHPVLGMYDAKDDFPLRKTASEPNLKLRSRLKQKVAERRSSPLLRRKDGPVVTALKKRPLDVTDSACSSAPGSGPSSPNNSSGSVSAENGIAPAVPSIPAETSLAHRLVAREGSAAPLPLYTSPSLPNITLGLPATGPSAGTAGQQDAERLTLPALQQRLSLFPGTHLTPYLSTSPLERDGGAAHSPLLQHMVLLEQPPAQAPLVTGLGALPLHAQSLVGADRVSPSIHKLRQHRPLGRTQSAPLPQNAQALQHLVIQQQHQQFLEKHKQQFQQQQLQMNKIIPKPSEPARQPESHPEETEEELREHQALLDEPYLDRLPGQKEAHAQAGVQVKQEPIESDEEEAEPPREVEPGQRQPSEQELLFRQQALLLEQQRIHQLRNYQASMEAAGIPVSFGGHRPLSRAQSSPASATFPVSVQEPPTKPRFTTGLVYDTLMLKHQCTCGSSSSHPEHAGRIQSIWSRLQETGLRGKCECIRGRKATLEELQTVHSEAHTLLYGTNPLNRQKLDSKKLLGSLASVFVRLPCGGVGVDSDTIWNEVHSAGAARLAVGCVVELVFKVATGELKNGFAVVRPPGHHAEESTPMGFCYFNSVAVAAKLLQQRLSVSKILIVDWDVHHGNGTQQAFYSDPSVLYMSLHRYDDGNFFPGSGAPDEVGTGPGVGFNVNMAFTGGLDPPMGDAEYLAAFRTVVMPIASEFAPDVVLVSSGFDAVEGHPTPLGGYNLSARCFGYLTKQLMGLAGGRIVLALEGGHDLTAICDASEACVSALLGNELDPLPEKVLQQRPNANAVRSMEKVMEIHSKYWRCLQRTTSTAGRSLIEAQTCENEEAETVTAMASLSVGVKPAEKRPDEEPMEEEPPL
Chain of Histone deacetylase 9 (Q9UKV0 whole entry): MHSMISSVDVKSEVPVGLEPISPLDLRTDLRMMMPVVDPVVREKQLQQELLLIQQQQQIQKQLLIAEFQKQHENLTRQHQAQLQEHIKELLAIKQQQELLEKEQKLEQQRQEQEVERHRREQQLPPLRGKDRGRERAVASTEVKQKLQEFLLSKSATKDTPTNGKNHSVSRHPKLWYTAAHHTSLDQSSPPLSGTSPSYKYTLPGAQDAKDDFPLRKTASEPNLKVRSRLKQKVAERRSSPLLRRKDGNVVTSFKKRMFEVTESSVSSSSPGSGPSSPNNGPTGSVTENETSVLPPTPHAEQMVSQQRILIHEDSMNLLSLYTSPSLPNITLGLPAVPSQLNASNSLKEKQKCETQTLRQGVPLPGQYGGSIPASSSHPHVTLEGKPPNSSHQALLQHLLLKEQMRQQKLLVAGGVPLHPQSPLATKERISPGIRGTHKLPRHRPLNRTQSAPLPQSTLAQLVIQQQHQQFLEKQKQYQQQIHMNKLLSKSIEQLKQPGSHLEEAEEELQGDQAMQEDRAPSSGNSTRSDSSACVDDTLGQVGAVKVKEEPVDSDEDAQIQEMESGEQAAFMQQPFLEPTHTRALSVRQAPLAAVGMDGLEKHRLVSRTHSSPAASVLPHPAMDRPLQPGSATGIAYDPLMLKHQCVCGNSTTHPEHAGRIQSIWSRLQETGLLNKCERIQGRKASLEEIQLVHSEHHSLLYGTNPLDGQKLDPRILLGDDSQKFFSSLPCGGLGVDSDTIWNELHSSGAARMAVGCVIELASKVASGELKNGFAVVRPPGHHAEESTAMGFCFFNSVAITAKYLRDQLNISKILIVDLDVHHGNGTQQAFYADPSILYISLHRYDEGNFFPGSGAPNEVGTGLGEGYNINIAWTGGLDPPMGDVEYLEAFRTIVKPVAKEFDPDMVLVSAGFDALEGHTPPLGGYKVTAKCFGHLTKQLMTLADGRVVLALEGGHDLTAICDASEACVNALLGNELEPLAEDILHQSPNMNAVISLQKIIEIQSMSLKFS
Chain of Histone deacetylase 1 (Q13547 whole entry): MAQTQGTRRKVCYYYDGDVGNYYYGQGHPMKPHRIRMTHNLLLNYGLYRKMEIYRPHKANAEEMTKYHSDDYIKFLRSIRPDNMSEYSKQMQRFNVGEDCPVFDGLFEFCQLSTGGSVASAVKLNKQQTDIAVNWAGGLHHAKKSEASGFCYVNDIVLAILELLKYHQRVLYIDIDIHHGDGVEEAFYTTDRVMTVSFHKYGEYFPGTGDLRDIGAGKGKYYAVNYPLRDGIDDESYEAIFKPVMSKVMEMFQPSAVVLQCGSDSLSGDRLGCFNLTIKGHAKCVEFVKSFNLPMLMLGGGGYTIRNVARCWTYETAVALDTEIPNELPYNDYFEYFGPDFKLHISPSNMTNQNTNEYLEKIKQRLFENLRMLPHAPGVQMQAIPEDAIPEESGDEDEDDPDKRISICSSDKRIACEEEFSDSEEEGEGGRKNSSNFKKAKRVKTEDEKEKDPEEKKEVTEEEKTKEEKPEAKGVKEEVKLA
Chain of Histone deacetylase 3 (O15379 whole entry): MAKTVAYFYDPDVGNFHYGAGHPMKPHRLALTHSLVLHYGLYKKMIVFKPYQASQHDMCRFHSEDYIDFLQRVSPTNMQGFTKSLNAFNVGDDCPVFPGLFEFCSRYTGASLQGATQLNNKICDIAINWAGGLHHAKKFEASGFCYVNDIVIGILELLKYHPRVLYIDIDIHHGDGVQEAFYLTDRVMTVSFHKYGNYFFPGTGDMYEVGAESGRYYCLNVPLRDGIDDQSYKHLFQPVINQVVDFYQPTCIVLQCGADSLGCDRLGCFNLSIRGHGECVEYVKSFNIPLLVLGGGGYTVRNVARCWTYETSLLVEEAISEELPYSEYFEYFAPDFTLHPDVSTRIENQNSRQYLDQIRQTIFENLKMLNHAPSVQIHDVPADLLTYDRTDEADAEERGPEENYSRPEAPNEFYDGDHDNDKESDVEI

Usually IC50 stands for the concentration needed to halve the response being measured. A word on the Cmax: it is the peak of the concentration-time curve. For orientation: half-life means the time in which the quantity being followed falls by half. Read a high half-life as slow decline. The term clearance denotes the rate of elimination divided by the concentration. Read a low clearance as a low capacity for elimination. What is called bioavailability is dose-corrected exposure relative to a reference, in per cent. A high value points to good availability. Broadly, the AUC(0-t) is exposure summed from dosing to a finite time, without extrapolation to infinity. Low values mean low exposure, high ones high exposure. Broadly, the MRT is the average time that molecules of a dose stay in the body. A word on the GI50: it is the concentration that inhibits growth by half. The term Ki denotes a dissociation constant, usually derived from enzyme kinetics or from competition with a known ligand. For the compound `Nc1ccccc1NC(=O)c1ccc(CCn2ncc3c2nc(N)n2nc(-c4ccco4)nc32)cc1`, the 50% inhibitory concentration (IC50) in series [1] was over 10000 nM; in series [4], 632 nM; in [8], 449 nM; in series [13], 80.2 nM; in series [18], over 10000 nM; in series [20], over 10000 nM. Further, in [2], the peak level (Cmax) was 2160 ng/mL. The half-life was 1.89 h in series [3] and 1.97 h in series [19]. The same compound showed a clearance in series [5] of 59 mL/min/kg. In addition, the bioavailability in [6] is 30.3%. The AUC(0-t) in series [7] was 1770 ng·h/mL; in [11], 6540 ng·h/mL; in series [15] it was 1460 ng·h/mL. Moreover, the k el at 24 h in series [9] was 9.86e-05 s⁻¹. For the same compound, the MRT stood at 2.61 h in series [10] and 1.41 h in series [16]. This compound also had a concentration for 50% growth inhibition (GI50) in [12] of 6200 nM. The Ki in [14] is 350 nM; in [17], 71.2 nM.

These data come from ChEMBL document CHEMBL5030563, “Structure-Based Design of Dual-Acting Compounds Targeting Adenosine A2A Receptor and Histone Deacetylase as Novel Tumor Immunotherapeutic Agents” (J Med Chem, 2021).
